US20100267629A1, “Enterostatin as Therapeutic Agent for Hypoglycemia” (Board of Supervisors of Louisiana State University and …, priority 2006, published 2010)
Read-outs that look alike come from different tables or passages of the source.

Tests used:
galanin receptors = settings: cited from earlier work
rats [1] = settings: cited from earlier work; for Duration of action on feeding: single injection
AMPK [2] = assay: pAMPK Western blot in HepG2 cells, 60 min incubation; type: cell-based, human; settings: HepG2, one hour incubation
Procedure: (§1) In a second experiment, human liver cells (HepG2 cell line, American Type Culture Collection, Manassas, Va.) were grown and maintained in Dulbecco's modified eagle's medium (Gibco, Carlsbad, Calif.) containing 10% fetal bovine serum, penicillin (100 I.U./ml), and streptomycin (100 μg/ml). The cells were then incubated for 60 min with 5 mM glucose and various concentrations of enterostatin (0.001, 0.01, 0.03, 0.1, 1.0 μM). After incubation, the cells were lysed and the cytosolic proteins subjected to Western blot analysis for pAMPK and PKARIIβ.

sheep = settings: single-choice diet; cited from earlier work
baboons = settings: single-choice diet; cited from earlier work
humans = settings: cited from earlier work
[3] = target: brain membrane preparation; settings: low affinity binding; cited from earlier work
[4] = target: T1, beta subunit of ATP synthase (Homo sapiens, UniProt P06576); settings: receptor protein on liver plasma membranes; cited from earlier work
T1 construct: from tissue; host or cells: liver plasma membranes
T1 sequence (P06576 48-529): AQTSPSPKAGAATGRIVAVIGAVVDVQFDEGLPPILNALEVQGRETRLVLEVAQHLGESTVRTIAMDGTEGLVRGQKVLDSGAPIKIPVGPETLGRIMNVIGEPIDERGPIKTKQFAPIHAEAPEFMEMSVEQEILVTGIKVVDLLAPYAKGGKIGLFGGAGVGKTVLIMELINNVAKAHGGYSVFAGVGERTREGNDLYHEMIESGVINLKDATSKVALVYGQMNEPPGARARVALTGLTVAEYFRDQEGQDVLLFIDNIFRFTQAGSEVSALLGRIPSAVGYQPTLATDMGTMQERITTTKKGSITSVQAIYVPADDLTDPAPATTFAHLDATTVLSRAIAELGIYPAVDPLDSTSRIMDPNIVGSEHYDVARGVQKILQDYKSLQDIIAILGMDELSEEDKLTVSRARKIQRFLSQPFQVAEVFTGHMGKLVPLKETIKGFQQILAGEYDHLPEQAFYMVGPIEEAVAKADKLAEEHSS
T1 sequence (P25705 44-553 partner): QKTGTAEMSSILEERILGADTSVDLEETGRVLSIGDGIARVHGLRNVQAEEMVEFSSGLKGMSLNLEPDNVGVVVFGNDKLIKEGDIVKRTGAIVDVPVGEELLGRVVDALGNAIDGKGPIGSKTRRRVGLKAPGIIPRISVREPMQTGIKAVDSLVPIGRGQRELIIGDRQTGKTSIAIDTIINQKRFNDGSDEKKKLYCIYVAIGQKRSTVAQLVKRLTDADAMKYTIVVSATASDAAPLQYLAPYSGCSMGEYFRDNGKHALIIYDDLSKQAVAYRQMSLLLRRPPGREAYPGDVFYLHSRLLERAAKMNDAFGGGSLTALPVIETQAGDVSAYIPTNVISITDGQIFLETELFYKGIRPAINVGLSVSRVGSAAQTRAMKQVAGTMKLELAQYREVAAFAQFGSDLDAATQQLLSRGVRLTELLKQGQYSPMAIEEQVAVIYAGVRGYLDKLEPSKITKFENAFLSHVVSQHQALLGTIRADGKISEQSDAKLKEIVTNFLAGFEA
T1 sequence (P36542 26-298 partner): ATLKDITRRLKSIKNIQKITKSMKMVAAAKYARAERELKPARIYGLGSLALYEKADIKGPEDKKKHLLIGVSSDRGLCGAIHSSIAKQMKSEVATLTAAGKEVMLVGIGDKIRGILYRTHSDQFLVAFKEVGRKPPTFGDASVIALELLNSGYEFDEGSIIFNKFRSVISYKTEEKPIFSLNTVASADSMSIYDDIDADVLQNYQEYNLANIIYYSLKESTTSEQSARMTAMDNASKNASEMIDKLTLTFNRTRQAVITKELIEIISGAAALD
T1 sequence (P30049 23-168 partner): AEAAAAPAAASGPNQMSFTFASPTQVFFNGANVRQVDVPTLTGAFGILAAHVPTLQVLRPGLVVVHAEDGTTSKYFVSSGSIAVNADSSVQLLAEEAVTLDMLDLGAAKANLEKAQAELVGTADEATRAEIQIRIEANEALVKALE
T1 sequence (P56381 2-51 partner limits assumed): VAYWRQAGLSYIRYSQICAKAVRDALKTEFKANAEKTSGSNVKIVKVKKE

[5] = peripheral and central administration; cited from earlier work
PKARIIβ = PKARIIβ Western blot in HepG2 cells, 60 min incubation; type: cell-based, human; settings: HepG2, one hour incubation
Procedure: as §1

[6] = test system: SK-N-MC neuroepithelioma cells; settings: cited from earlier work
[7] = indirect calorimetry; cited from earlier work
rats [8] = settings: cited from earlier work
rabbits = settings: single-choice diet; cited from earlier work
AMPK [9] = assay: pAMPK Western blot in HepG2 cells, 15 min incubation; type: cell-based, human
Procedure: Human liver cells (HepG2 cell line, American Type Culture Collection, Manassas, Va.) were grown and maintained in Dulbecco's modified eagle's medium (Gibco, Carlsbad, Calif.) containing 10% fetal bovine serum, penicillin (100 I.U./ml), and streptomycin (100 μg/ml). The cells were then incubated for 15 min with 5 mM glucose and various concentrations of enterostatin (0.003, 0.01, 0.1, 1, and 3 μM) and/or of its antagonist β-casomorphin (BCM) (0.003, 0.01, 0.1, 1, and 3 μM). After incubation, the cells were lysed and the cytosolic proteins subjected to Western blot analysis for AMPK and pAMPK. The results for pAMPK activity are shown in FIG. 5A (enterostatin) and FIG. 5B (BCM). […] This effect was blocked by the presence of an antibody to the enterostatin receptor (anti F1-ATPase beta subunit).

[10] = three-choice macronutrient diet

## Enterostatin: aminoterminal pentapeptide of procolipase released when procolipase is converted into colipase (VPDPR; printed: Val-Pro-Asp-Pro-Arg)
Galanin receptors
  Binding: not to bind
Rats [1]; rats adapted to ad-libitum feeding
  Duration of action on feeding: up to 24 hours
Rats [1]; rats adapted to six-hour feeding schedule
  Duration of action on feeding: lasting up to six hours
Rats [1]; [10]
  Carbohydrate or protein intake: no effect
  Intake of the fat macronutrient: reduced intake of the fat macronutrient
Rats [1]; two-choice high-fat / low-fat diet
  Intake of HF and LF diet: reduced only intake of the HF diet
AMPK [2]
  Dose of peak effect on pAMPK: 0.01 μM
AMPK [2]; 5 mM glucose
  pAMPK levels: increase in pAMPK levels
sheep
  Food intake: reduce food intake
baboons
  Food intake: reduce food intake
humans
  Food intake: not been found to reduce food intake
humans; intravenous injection
  Subjective feeling of hunger: reduce the subjective feeling of hunger
[3]
  Kd: 230 nM
[4]
  Kd: 2.5 nM
[5]
  Insulin levels: reduction in insulin levels
  Plasma glucose: without any changes in plasma glucose
PKARIIβ
  Dose of peak increase in PKARIIβ: 10 nM
PKARIIβ; 5 mM glucose
  PKARIIβ: increase in PKARIIβ
[6]
  Kd: 40 nM
[7]
  Fat oxidation: enhance fat oxidation
Rats [8]; chronic icv, HF diets
  Fat deposition and body weight gain: reduction in fat deposition and body weight gain
Rats [8]; chronic icv, single-choice HF or two-choice HF/LF diet
  Daily intake of dietary fat: attenuated the daily intake of dietary fat
Rats [8]; chronic treatment, low-fat diet for seven days
  Energy intake or change in body weight gain: no significant reduction
rabbits
  Food intake: reduce food intake
AMPK [9]; HepG2, 15 min, 5 mM glucose
  Effect on pAMPK in presence of antibody anti F1-ATPase beta subunit: blocked
AMPK [9]; HepG2, 15 min, 5 mM glucose, 0.003-3 μM
  AMPkinase activity shown by pAMPK: inhibited AMPkinase
AMPK [9]; HepG2, enterostatin 0.01, 0.1 and 1.0 uM with β-casomorphin
  β-casomorphin stimulation of pAMPK levels: reversed dose-dependently
